In patent US10894768B2, “Salt of (R)-(1-methylpyrrolidine-3-yl)methyl(3′-chloro-4′-fluoro-[1,1′-biphenyl]-2-yl)carbamate and crystal form thereof” (Dong-A St Co., Ltd., priority 2016, dated 2021):

Columns and labels:
Type in all cases: physicochemical
[1] = Stress stability in a solid state (stress test)
Experimental: (§1) 4. Liquid Chromatography (HPLC)
(§2) Detector: Ultraviolet absorptiometer (detection wavelength of 244 nm)
(§3) Column: Waters, XBridge C18, 4.6*150 mm, 5 um
(§4) Column temperature: 40° C.
(§5) Mobile phase buffer: A 0.01M (NH4)HCO3 solution was prepared and adjusted to pH 10.5 by means of ammonia water.
(§6) Mobile phase A: Buffer:Acetonitrile=8:2
(§7) Mobile phase B: Acetonitrile
(§8) Sample solution: 1.0 mg/mL in 50% methanol

[2] = Accelerated stability in the solid state (accelerated test, 40° C./RH 75%); details: for Property / Relative purity (%): 40° C./RH 75%; for Change in purity / Physical state: under the accelerated condition
Experimental: as §1, §2, §3, §4, §5, §6, §7, §8

[3] = Accelerated and stress stability of forms I, II and III; details: for Crystal form / Relative purity (%): oxalate; for Stability: under the accelerated and stress conditions
Experimental: X-ray powder diffraction (XRPD) pattern was obtained by means of a solid-phase detector of BRUKER D8 ADVANCE model using CuKα radiation at 1.54178 Å (40 kV, 40 mA). An analysis was performed through measurement at an angle 2θ in a range of 3° to 50° with a step size of 0.02°.
as §1, §2, §3, §4, §5, §6, §7, §8
The accelerated test (accelerated condition: 40° C./RH 75%) and the stress test (stress condition: 60° C.) were performed on the form I of (R)-(1-methylpyrrolidine-3-yl)methyl(3′-chloro-4′-fluoro-[1,1′-biphenyl]-2-yl)carbamate oxalate prepared in Example 2 above and the form II of (R)-(1-methylpyrrolidine-3-yl)methyl(3′-chloro-4′-fluoro-[1,1′-biphenyl]-2-yl)carbamate oxalate and the form III of (R)-(1-methylpyrrolidine-3-yl)methyl(3′-chloro-4′-fluoro-[1,1′-biphenyl]-2-yl)carbamate oxalate prepared in Examples 3 and 9, wherein analysis results thereof were shown in Table 3.

| Compound | Property ([1]; 60° C., Week 1) | Relative purity ([1]; 60° C., Week 1) | Property ([1]; 60° C., Week 2) | Relative purity ([1]; 60° C., Week 2) | Property ([1]; RH 90%, Week 1) | Relative purity ([1]; RH 90%, Week 1) | Property ([1]; RH 90%, Week 2) | Relative purity ([1]; RH 90%, Week 2) | Property ([1]; initial) | Relative purity ([1]; initial) | Change in purity ([1]; under the stress condition) | Property ([2]; Week 1) | Relative purity (%) ([2]; Week 1) | Property ([2]; Week 2) | Relative purity (%) ([2]; Week 2) | Property ([2]; Week 3) | Relative purity (%) ([2]; Week 3) | Property ([2]; Week 4) | Relative purity (%) ([2]; Week 4) | Property ([2]; initial) | further results |
| --- | --- | --- | --- | --- | --- | --- | --- | --- | --- | --- | --- | --- | --- | --- | --- | --- | --- | --- | --- | --- | --- |
| CN1CC[C@@H](COC(=O)Nc2ccccc2-c2ccc(F)c(Cl)c2)C1.O=C(O)C(=O)O [Oxalate, (R)-(1-methylpyrrolidine-3-yl)methyl(3′-chloro-4′-fluoro-[1,1′-biphenyl]-2-yl)carbamate oxalate] | Solid | 99.3/ % | Solid | 99.4/ % | Solid | 99.3/ % | Solid | 99.4/ % | Solid | 99.3/ % | do not show a change in purity | Solid | 99.3 | Solid | 99.3 | Solid | 99.3 | Solid | 99.3 | Solid | Physical state ([1]; under the stress condition): kept in an unmelted state; Relative purity (%) ([2]; initial): 99.3%; Change in purity [2]: do not show a change in purity |
| CN1CC[C@@H](COC(=O)Nc2ccccc2-c2ccc(F)c(Cl)c2)C1.O=P(O)(O)O [Phosphate] | Dissolved | 98.4/ % | Dissolved | 98.4/ % | Dissolved | 98.4/ % | Dissolved | 98.4/ % | Solid | 98.4/ % | do not show a change in purity | Dissolved | 98.3 | Dissolved | 98.3 | Dissolved | 98.4 | Dissolved | 98.4 | Solid | Relative purity (%) ([2]; initial): 98.4%; Change in purity [2]: do not show a change in purity; Physical state [2]: show a melting phenomenon |
| CN1CC[C@@H](COC(=O)Nc2ccccc2-c2ccc(F)c(Cl)c2)C1.O=C(O)C(=O)O [form I, (R)-(1-methylpyrrolidine-3-yl)methyl(3′-chloro-4′-fluoro-[1,1′-biphenyl]-2-yl)carbamate oxalate] | – | – | – | – | – | – | – | – | – | – | – | – | – | – | – | – | – | – | – | – | Crystal form ([3]; 40° C./RH 75% Week 1): form I; Relative purity (%) ([3]; 40° C./RH 75% Week 1): 99.55%; Crystal form ([3]; 40° C./RH 75% Week 3): form I; Relative purity (%) ([3]; 40° C./RH 75% Week 3): 99.60%; Crystal form ([3]; 60° C. Week 1): form I; Relative purity (%) ([3]; 60° C. Week 1): 99.71%; Crystal form ([3]; 60° C. Week 3): form I; Relative purity (%) ([3]; 60° C. Week 3): 99.61%; Crystal form ([3]; Early): form I; Relative purity (%) ([3]; Early): 99.66%; Stability [3]: stable |
| CN1CC[C@@H](COC(=O)Nc2ccccc2-c2ccc(F)c(Cl)c2)C1.O=C(O)C(=O)O [form II, (R)-(1-methylpyrrolidine-3-yl)methyl(3′-chloro-4′-fluoro-[1,1′-biphenyl]-2-yl)carbamate oxalate] | – | – | – | – | – | – | – | – | – | – | – | – | – | – | – | – | – | – | – | – | Crystal form ([3]; 40° C./RH 75% Week 1): form II; Relative purity (%) ([3]; 40° C./RH 75% Week 1): 99.83%; Crystal form ([3]; 40° C./RH 75% Week 3): form II; Relative purity (%) ([3]; 40° C./RH 75% Week 3): 99.81%; Crystal form ([3]; 60° C. Week 1): form II; Relative purity (%) ([3]; 60° C. Week 1): 99.85%; Crystal form ([3]; 60° C. Week 3): form II; Relative purity (%) ([3]; 60° C. Week 3): 99.79%; Crystal form ([3]; Early): form II; Relative purity (%) ([3]; Early): 99.87%; Stability [3]: stable |
| CN1CC[C@@H](COC(=O)Nc2ccccc2-c2ccc(F)c(Cl)c2)C1.O=C(O)C(=O)O [form III, (R)-(1-methylpyrrolidine-3-yl)methyl(3′-chloro-4′-fluoro-[1,1′-biphenyl]-2-yl)carbamate oxalate] | – | – | – | – | – | – | – | – | – | – | – | – | – | – | – | – | – | – | – | – | Crystal form ([3]; 40° C./RH 75% Week 1): form III; Relative purity (%) ([3]; 40° C./RH 75% Week 1): 99.79%; Crystal form ([3]; 40° C./RH 75% Week 3): form III; Relative purity (%) ([3]; 40° C./RH 75% Week 3): 99.80%; Crystal form ([3]; 60° C. Week 1): form III; Relative purity (%) ([3]; 60° C. Week 1): 99.82%; Crystal form ([3]; 60° C. Week 3): form III; Relative purity (%) ([3]; 60° C. Week 3): 99.79%; Crystal form ([3]; Early): form III; Relative purity (%) ([3]; Early): 99.81%; Stability [3]: stable |
| (R)-(1-methylpyrrolidine-3-yl)methyl(3′-chloro-4′-fluoro-[1,1′-biphenyl]-2-yl)carbamate citrate | Dissolved | 97.8/ % | Dissolved | 97.9/ % | Dissolved | 97.7/ % | Dissolved | 97.7/ % | Solid | 97.7/ % | do not show a change in purity | Solid | 97.7 | Solid | 97.6 | Dissolved | 97.7 | Dissolved | 97.4 | Solid | Relative purity (%) ([2]; initial): 97.7%; Change in purity [2]: do not show a change in purity; Physical state [2]: show a melting phenomenon |
